Experimental data taken from publication PMC8907111 (Biochemical and Biophysical Research Communications, 2022).

Biological target: SARS-CoV-2 M^pro (Severe acute respiratory syndrome coronavirus 2, UniProt P0DTD1)
Assay: FRET protease enzymatic inhibition assay
Type: biochemical
Details: for inhibition at 50 µM: read-out: M^pro Inhibition rate at 50 μM; for M^pro Inhibition rate at 50 μM: compound at 50 μM, FRET assay

Row | Compound | M^pro Inhibition rate at 50 μM | other results
1 | O=c1cc(-c2ccc(O)cc2)oc2cc(O)c(O)c(O)c12 [Compound 1, Scutellarein] |  | inhibition at 50 µM: 102%
2 | COc1c(O)cc2oc(-c3ccc(O)cc3)cc(=O)c2c1O [Compound 2, Hispidulin] | reduced rates of inhibition | 
3 | COc1ccc(-c2cc(=O)c3c(O)c(OC)c(O)cc3o2)cc1 [Compound 3, Pectolinarigenin] | reduced rates of inhibition | 
4 | COc1ccc(-c2cc(=O)c3c(OC)c(O)c(O)cc3o2)cc1 [Compound 5, 6,7-dihydroxy-5-methoxy-2-(4-methoxyphenyl) chromone] |  | IC50: 16.7 ± 2.09 µM
5 | COc1ccc(-c2cc(=O)c3c(O)c(OC)c(OC)cc3o2)cc1 [Compound 6, Salvigenin] | reduced rates of inhibition | 
6 | COc1ccc(-c2cc(=O)c3c(OC)c(OC)c(OC)cc3o2)cc1 [Compound 7, 5,6,7,4'-tetramethoxyflavone] | reduced rates of inhibition | 
7 | O=c1cc(-c2ccccc2)oc2cc(O)c(O)c(O)c12 [Compound 8, Baicalein, reference compound] |  | inhibition at 50 µM: 103%
